Results reported in PubChem BioAssay (NCI).
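48-hour exposure; five concentrations; linearly interpolated endpoints. Abbreviation: GI50, concentration required for 50% inhibition of growth. TGI marks complete inhibition of growth.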

Tests used:
Assay in all cases: growth of human tumour cells (NCI), 48 h
[1] = tested on: CCRF-CEM leukemia
[2] = tested on: SK-OV-3 ovarian
[3] = tested on: SF-295 CNS
[4] = tested on: IGROV1 ovarian
[5] = tested on: MALME-3M melanoma
[6] = tested on: MOLT-4 leukemia
[7] = tested on: KM12 colon
[8] = tested on: HCC-2998 colon
[9] = tested on: DU-145 prostate
[10] = tested on: M14 melanoma

SMILES | GI50 [1] [µM] | TGI [1] [µM] | GI50 [2] [µM] | TGI [2] [µM] | GI50 [3] [µM] | TGI [3] [µM] | GI50 [4] [µM] | TGI [4] [µM] | GI50 [5] [µM] | TGI [5] [µM] | GI50 [6] [µM] | TGI [6] [µM] | GI50 [7] [µM] | TGI [7] [µM] | GI50 [8] [µM] | TGI [8] [µM] | GI50 [9] [µM] | TGI [9] [µM] | GI50 [10] [µM] | TGI [10] [µM]
Nc1c(C(=O)Nc2cccc3ccccc23)sc2nc3c(cc12)CCCCC3 | 0.692 | > 50 | 1.47 | > 50 | 0.421 | > 50 | 1.9 | > 50 | 31.9 | > 50 | 0.418 | > 50 | 0.76 | > 50 | 2.41 | > 50 | 1.73 | > 50 | 0.339 | > 50
Cc1ccc(-c2nc3nc(-c4ccc(Cl)cc4)nc(N4CCCNCC4)c3o2)cc1 | 0.7 | 2.91 | 1.75 | 3.29 | 1.82 | 3.39 | 1.65 | 3.15 | 1.7 | 3.17 | 1.91 | 3.72 | 1.93 | 3.81 | 1.89 | 3.54 | 1.95 | 3.59 | 1.75 | 3.34
Nc1nc(F)nc2c1ncn2C1OC(COP(=O)(O)O)C(O)C1O (stereo not drawn) |  | 202 |  | 292 |  | 917 |  | 952 |  | 254 |  | 224 |  | 900 |  | 1170 |  | 124 |  | 66.7
C=C1C(=O)O[C@H]2[C@H]1CC/C(COC(=O)N[C@@H](Cc1c[nH]c3ccccc13)C(=O)OC)=C\CC[C@@]1(C)O[C@@H]21 | 0.621 | 3.18 | 12 | 24.6 | 9.4 | 21.6 | 1.22 | 2.67 | 1.51 | 3.07 | 1.54 | 5.05 | 4.11 | 15.6 | 1.95 | 4.01 | 1.08 | 2.44 | 1.59 | 3.35
CCOC(=O)c1ccc(C(O)CC(=O)OC(C)(C)C)[nH]1 (stereo not drawn) | 29.6 | 88 | 32.1 | > 100 | 29.7 | 63.5 | 12.4 | 30.4 | 0.692 | 24.8 | 17.2 | > 100 | 24 | 61.4 | 33 | > 100 | 59.7 | > 100 | 27 | 67.3
COc1ccc2c(c1)/C(=C/c1c(-c3ccc(C)cc3)nc3sc(C)cn13)C(=O)N2 | 6.84 | 80.3 | 23.9 | > 100 | 11 | > 100 | 32.9 | > 100 | 25.2 | > 100 |  |  | 23.1 | > 100 | 13.4 | 43.7 | 4.75 | > 100 | 13.2 | 59.1
COc1ccc2c(c1)C(=O)c1c-2c(N2CCN(C(=O)CN(C)C)CC2)nc2ccccc12 | 10.7 | 27.1 | 19.6 | > 100 | 13.7 | 41 | 10 | 26.4 | 23 | 58.1 | 5.23 | 24.8 | 25.4 | 83.1 | 15.2 | 40.5 | 14.8 | 35.2 | 15.6 | 31.5
O=C1CN2CCC1C/C2=C\c1ccnc2c(Cl)cccc12 (stereo not drawn) | 36.5 | > 100 | > 100 | > 100 | 46.5 | > 100 | 34 | > 100 | 91.9 | > 100 | 44.4 | > 100 | 56.8 | > 100 | > 100 | > 100 | > 100 | > 100 | > 100 | > 100
Cc1cc(Nc2nc(N3CCOCC3)nc3ccccc23)n[nH]1 | 4.03 | > 100 | 3.69 | 40.9 | 6.19 | 74.4 | 2.12 | 27.1 | 44.2 | > 100 | 15 | 77.9 | 0.4 | > 100 | 24.8 | > 100 | 13.3 | > 100 | 7.14 | > 100
